Measured values taken from the NIST ThermoML archive (doi:10.1021/je401057z).
Numbers after ± are expanded uncertainties. Each block holds one molecule with its values, some of them ahead of it.

Conditions: Liquid

Compound: Cc1ccccc1C [1,2-dimethylbenzene]
- vapor or sublimation pressure (456.1 K): 250 ± 10 kPa

Compound: Cc1cccc(C)c1 [1,3-dimethylbenzene]
- vapor or sublimation pressure (450.1 K): 250 ± 10 kPa

Compound: Cc1ccc(C)cc1 [1,4-dimethylbenzene]
- vapor or sublimation pressure (410.78 K, Ebulliometric method (Recirculating still)): 100.04 ± 3.2 kPa
- vapor or sublimation pressure (412.63 K, Ebulliometric method (Recirculating still)): 105 ± 3.4 kPa
- vapor or sublimation pressure (419.48 K, Ebulliometric method (Recirculating still)): 124.93 ± 4 kPa
- vapor or sublimation pressure (433.57 K, Ebulliometric method (Recirculating still)): 174.88 ± 5.6 kPa
- vapor or sublimation pressure (439.37 K, Ebulliometric method (Recirculating still)): 199.86 ± 6.4 kPa
- vapor or sublimation pressure (444.66 K, Ebulliometric method (Recirculating still)): 224.86 ± 7.2 kPa
- vapor or sublimation pressure (449.56 K, Ebulliometric method (Recirculating still)): 250.04 ± 8 kPa
- vapor or sublimation pressure (449.6 K, Ebulliometric method (Recirculating still)): 250 ± 8 kPa

- vapor or sublimation pressure (371.55 K): 100.05 ± 3.5 kPa
- vapor or sublimation pressure (373.4 K): 104.94 ± 3.7 kPa
- vapor or sublimation pressure (379.8 K): 124.9 ± 4.3 kPa
- vapor or sublimation pressure (386.94 K): 149.96 ± 5.1 kPa
- vapor or sublimation pressure (393.14 K): 174.7 ± 6 kPa
- vapor or sublimation pressure (398.64 K): 199.94 ± 6.8 kPa
- vapor or sublimation pressure (403.68 K): 224.91 ± 7.6 kPa
- vapor or sublimation pressure (408.28 K): 249.95 ± 8.4 kPa
- vapor or sublimation pressure (408.3 K): 250 ± 8 kPa
Compound: CC(C)CC(C)(C)C [2,2,4-trimethylpentane]

- vapor or sublimation pressure (447.2 K): 250 ± 10 kPa
Compound: CCc1ccccc1 [ethylbenzene]
